In ChEMBL document CHEMBL3886212, “Disubstituted 3,4-diamino-3-cyclobutene-1,2-dione compounds for use in the treatment of chemokine-mediated diseases” (2015):

Tests used:
[1] = biological target: T1, C-X-C chemokine receptor type 1 (Homo sapiens, UniProt P25024); experiment: (§1) Assay Drug Dev Technol. 2007 February; 5(1); 137-44).; format: cell-based
T1 sequence (P25024 whole entry): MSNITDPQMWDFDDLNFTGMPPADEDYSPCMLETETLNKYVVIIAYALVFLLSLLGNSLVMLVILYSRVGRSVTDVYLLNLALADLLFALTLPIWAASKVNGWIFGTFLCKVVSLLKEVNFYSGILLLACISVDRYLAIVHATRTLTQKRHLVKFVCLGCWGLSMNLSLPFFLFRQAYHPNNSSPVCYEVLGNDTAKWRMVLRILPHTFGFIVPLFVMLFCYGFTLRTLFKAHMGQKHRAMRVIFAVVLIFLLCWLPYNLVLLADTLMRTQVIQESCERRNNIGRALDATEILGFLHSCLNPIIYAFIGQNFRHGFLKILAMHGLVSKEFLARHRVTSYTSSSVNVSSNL

[2] = biological target: T2, C-X-C chemokine receptor type 2 (Homo sapiens, UniProt P25025); experiment: as §1; format: cell-based
T2 sequence (P25025 whole entry): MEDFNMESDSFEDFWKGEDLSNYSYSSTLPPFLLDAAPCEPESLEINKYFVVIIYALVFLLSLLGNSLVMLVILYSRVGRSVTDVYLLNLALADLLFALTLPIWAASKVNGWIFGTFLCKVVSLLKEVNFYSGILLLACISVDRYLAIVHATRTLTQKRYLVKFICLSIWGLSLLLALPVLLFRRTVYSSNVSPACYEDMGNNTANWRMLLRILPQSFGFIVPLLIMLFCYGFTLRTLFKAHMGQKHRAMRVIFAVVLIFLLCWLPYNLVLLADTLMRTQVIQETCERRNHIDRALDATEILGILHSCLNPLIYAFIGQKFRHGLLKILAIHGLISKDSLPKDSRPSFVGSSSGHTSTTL

SMILES: Cc1ccc(C(Nc2c(Nc3cccc(C(=O)N(C)C)c3O)c(=O)c2=O)C2(C)CCOCC2)o1 (configuration not stated)
- IC50 [1]: 3350 nM
- IC50 [2]: 157 nM
